Measured values published in patent US12378186B2, “Inhibitors of meprin α and β” (VIVORYON THERAPEUTICS N.V., priority 2016, dated 2025).
Where two headings read alike, the source gives them in different places.

Experiments:
hMeprin α = target: T1, hMeprin α (Homo sapiens, UniProt Q16819); assay: biochemical; format: biochemical
T1 sequence (Q16819 66-746): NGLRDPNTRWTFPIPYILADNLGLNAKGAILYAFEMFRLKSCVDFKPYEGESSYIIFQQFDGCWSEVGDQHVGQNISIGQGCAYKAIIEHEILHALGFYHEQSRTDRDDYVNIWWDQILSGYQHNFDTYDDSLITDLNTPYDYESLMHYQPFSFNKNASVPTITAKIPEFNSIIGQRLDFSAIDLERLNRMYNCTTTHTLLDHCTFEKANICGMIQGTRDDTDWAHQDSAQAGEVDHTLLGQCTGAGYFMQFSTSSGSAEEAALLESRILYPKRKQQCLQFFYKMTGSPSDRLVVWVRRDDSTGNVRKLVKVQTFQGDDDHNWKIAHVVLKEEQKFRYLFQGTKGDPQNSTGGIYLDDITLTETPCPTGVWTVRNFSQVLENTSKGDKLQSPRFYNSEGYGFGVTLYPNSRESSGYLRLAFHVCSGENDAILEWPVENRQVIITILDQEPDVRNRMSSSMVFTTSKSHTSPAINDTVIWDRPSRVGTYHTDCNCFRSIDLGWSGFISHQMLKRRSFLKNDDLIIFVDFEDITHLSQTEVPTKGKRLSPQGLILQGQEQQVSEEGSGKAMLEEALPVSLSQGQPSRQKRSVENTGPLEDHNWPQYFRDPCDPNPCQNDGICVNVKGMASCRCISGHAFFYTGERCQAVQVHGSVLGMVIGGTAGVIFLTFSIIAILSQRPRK
Method: (§1) A typical assay of 250 μl total volume measured in black 96 well plates consisted of 100 μl buffer, 50 μl enzyme at a final concentration of 5e-8 M to 5e-9 M, 50 μl substrate (0.15 to 80 μM, in buffer, 0.5% DMSO) and 50 μl inhibitor solution (in buffer, 1% DMSO). In case of 125 μl assay volume (black 96 half area well plates) all volumes were cut in half. Enzymatic activity of ADAMs was measured in 384 well plates with 60 μl total assay volume consisting of 20 μl inhibitor, 20 μl buffer, 10 μl enzyme and 10 μl substrate.
(§2) Ki values were assessed combining 4 substrate concentrations (5-40 μM) with at least 5 inhibitor concentrations. […] Initial velocities were determined and converted into concentration units applying a standard curve obtained after complete conversion of different substrate concentrations under assay conditions. All measurements were performed using a fluorescence plate reader (FLUOstar OPTIMA, BMG Labtech) at 30° C. The kinetic parameters were determined at least in duplicates on separate days. The excitation/emission wavelength was 340/420 nm. The kinetic data was evaluated using GraFit software (version 7.0.3, Erithacus Software).
(§3) The following compounds according to the present invention were synthesized using the above general procedures. IC50 refers to the average IC50 values measured as described above, SD (IC50) refers to the standard deviation of the average IC50 values, Ki refers to the average K; values measured as described above, and SD (Ki) to the standard deviation of the average Ki values.

hMeprin β = target: T2, hMeprin β (Homo sapiens, UniProt Q16820); assay: Enzymatic assay, cleavage of internally quenched peptide substrate, hMeprin β; format: biochemical
T2 sequence (Q16820 62-701): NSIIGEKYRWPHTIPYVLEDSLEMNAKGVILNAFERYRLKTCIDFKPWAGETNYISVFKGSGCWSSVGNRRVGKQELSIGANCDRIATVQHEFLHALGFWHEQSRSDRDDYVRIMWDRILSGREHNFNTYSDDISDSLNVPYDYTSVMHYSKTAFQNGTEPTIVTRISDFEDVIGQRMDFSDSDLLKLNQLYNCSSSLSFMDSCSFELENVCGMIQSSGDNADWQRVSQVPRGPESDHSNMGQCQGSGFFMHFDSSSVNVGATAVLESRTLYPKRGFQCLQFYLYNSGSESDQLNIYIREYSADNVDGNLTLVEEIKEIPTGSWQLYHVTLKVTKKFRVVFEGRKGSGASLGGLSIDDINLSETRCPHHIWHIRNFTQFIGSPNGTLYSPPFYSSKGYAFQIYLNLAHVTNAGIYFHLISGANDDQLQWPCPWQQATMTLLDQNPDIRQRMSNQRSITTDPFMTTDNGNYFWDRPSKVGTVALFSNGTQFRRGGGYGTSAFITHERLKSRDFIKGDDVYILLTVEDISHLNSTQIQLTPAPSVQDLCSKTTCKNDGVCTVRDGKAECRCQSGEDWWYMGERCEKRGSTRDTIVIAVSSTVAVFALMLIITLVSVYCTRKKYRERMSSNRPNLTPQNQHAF
Method: as §1, §2, §3

[1] = average IC50, 10 μM substrate, 30° C., 40 mM Tris pH 8.0, read-out: Meprin Beta IC50
[2] = average IC50, 10 μM substrate, 30° C., 40 mM HEPES pH 7.4, read-out: Meprin Alpha IC50
[3] = average Ki, 4 substrate concentrations (5-40 μM), 30° C., 40 mM HEPES pH 7.4, read-out: Meprin Alpha Ki

| SMILES | IC50 (hMeprin α) [nM] | Ki (hMeprin α) [nM] | Ki (hMeprin β) [nM] | IC50 (hMeprin β; [1]) [nM] | IC50 (hMeprin α; [2]) [nM] | Ki (hMeprin α; [3]) [nM] | IC50 (hMeprin β) [nM] |
| --- | --- | --- | --- | --- | --- | --- | --- |
| O=C(CN(Cc1c(F)ccc(O)c1F)Cc1c(F)ccc(O)c1F)NO [Example 49, 2-[bis[(2,6-difluoro-3-hydroxy-phenyl)methyl]-amino]ethanehydroxamic acid] | 5600 | 998 | 1960 | 5520 | – | – | – |
| O=C(CN(Cc1ccc(F)c(O)c1)Cc1ccc(F)c(O)c1)NO [Example 50, 2-[bis[(4-fluoro-3-hydroxy-phenyl)methyl]-amino]ethanehydroxamic acid] | – | – | 352 | 1060 | 986 | 306 | – |
| O=C(CN(Cc1cccc(O)c1F)Cc1cccc(O)c1F)NO [Example 51, 2-[bis[(2-fluoro-3-hydroxy-phenyl)methyl]-amino]ethanehydroxamic acid] | – | – | 1170 | 2900 | 1210 | 335 | – |
| O=C(CN(Cc1ccc(Cl)c(O)c1F)Cc1ccc(Cl)c(O)c1F)NO [Example 52, 2-[bis[(4-chloro-2-fluoro-3-hydroxy-phenyl)-methyl]amino]ethanehydroxamic acid] | – | – | 8 | – | – | 104 | – |
| COc1ccc(CN(CC(=O)NO)Cc2ccc(F)c(O)c2F)cc1 [Example 53, 2-[(2,4-difluoro-3-hydroxy-phenyl)methyl-[(4-methoxyphenyl)methyl]amino]ethanehydroxamic acid] | – | – | 158 | – | 995 | 328 | 331 |
| CCOC(=O)c1cccc(CN(CC(=O)NO)Cc2cccc(C(=O)OCC)c2)c1 [Example 54, ethyl 3-[[(3-ethoxycarbonylphenyl)methyl-[2-(hydroxyamino)-2-oxo-ethyl]amino]methyl]benzoate] | – | – | 1760 | 94800 | 7270 | – | – |
| COc1c(F)ccc(CN(CC(=O)NO)Cc2ccc(F)c(OC)c2F)c1F [Example 58, 2-[bis[(2,4-difluoro-3-methoxy-phenyl)methyl]-amino]ethanehydroxamic acid] | – | – | – | 18200 | 2830 | 726 | – |
| CCOC(=O)c1cccc(CN(CC(=O)NO)Cc2cccc(C(=O)O)c2)c1 [Example 59, 3-[[(3-ethoxycarbonylphenyl)methyl-[2-(hydroxyamino)-2-oxo-ethyl]amino]methyl]benzoic acid] | – | – | 271 | – | 4130 | 1470 | 839 |
| O=C(CN(Cc1ccc(Cl)cc1F)Cc1ccc(Cl)cc1F)NO [Example 60, 2-[bis[(4-chloro-2-fluoro-phenyl)methyl]-amino]ethanehydroxamic acid] | – | – | – | – | 3060 | 838 | 138000 |
| COc1cc(CN(CC(=O)NO)Cc2cc(OC)c(OC)c(OC)c2)cc(OC)c1OC [Example 61, 2-[bis[(3,4,5-trimethoxyphenyl)methyl]-amino]-ethanehydroxamic acid] | – | – | – | – | 5320 | 1180 | 20100 |
| O=C(CN(Cc1ccc2c(c1)OCCO2)Cc1ccc2c(c1)OCCO2)NO [Example 63, 2-[bis(2,3-dihydro-1,4-benzodioxin-6-yl-methyl)amino]ethanehydroxamic acid] | – | – | – | – | 1520 | 297 | 30600 |
| COc1c(F)ccc(CN(CCC(=O)NO)Cc2ccc(F)c(OC)c2F)c1F [Example 64, 3-[bis[(2,4-difluoro-3-methoxy-phenyl)methyl]-amino]propanehydroxamic acid] | – | – | – | – | 881 | 332 | 18700 |
| COc1cc(CN(CCC(=O)NO)Cc2cc(OC)c(OC)c(OC)c2)cc(OC)c1OC [Example 66, 3-[bis[(3,4,5-trimethoxyphenyl)methyl]amino]-propanehydroxamic acid] | – | – | – | – | 19800 | – | 90000 |
| COc1cc(CN(CC(=O)NO)Cc2cc(OC)c3c(c2)OCO3)cc2c1OCO2 [Example 68, 2-[bis[(7-methoxy-1,3-benzodioxol-5-yl)methyl]amino]ethanehydroxamic acid] | – | – | 1820 | – | 554 | 164 | 4570 |
| O=C(CCN(Cc1ccc2c(c1)OCCO2)Cc1ccc2c(c1)OCCO2)NO [Example 69, 3-[bis(2,3-dihydro-1,4-benzodioxin-6-ylmethyl)amino]propanehydroxamic acid] | – | – | 3740 | – | 400 | 117 | 7590 |
| N#Cc1cccc(CN(CCC(=O)NO)Cc2cccc(C#N)c2)c1 [Example 70, 3-[bis[(3-cyanophenyl)methyl]amino]-propanehydroxamic acid] | – | – | – | – | 2340 | 696 | 33100 |
| O=C(CCN(Cc1ccccc1)Cc1ccccc1)NO [Example 71, 3-(dibenzylamino) propanehydroxamic acid] | – | – | – | – | 1680 | 612 | 75500 |
| O=C(CN(Cc1cccc(OC(F)F)c1)Cc1cccc(OC(F)F)c1)NO [Example 72] | – | – | – | 57000 | 5680 | 2150 | – |
| O=C(CN(Cc1cccnc1)Cc1cccnc1)NO [Example 73, 2-[bis(3-pyridylmethyl)amino]ethanehydroxamic acid] | – | – | – | – | 1960 | 637 | 21700 |
| O=C(CCN(Cc1ccc2c(c1)OCO2)Cc1ccc2c(c1)OCO2)NO [Example 74, 3-[bis(1,3-benzodioxol-5-ylmethyl)amino]-propanehydroxamic acid] | – | – | 1150 | – | 150 | 52 | – |
